Source: ChEMBL document CHEMBL1201862, “PubChem BioAssay data set” (2004)
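Five concentrations, 48 hours, 96-well plates. At the GI50, growth is halved.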 The source made the active and inactive calls. Rule as the data show it: active = GI50 up to about 1.1 µM and inactive = higher.

Key:
Experiment in all cases: DTP human tumour cell line panel, 48 h
SK-MEL-5 = test system: SK-MEL-5
NCI-H23 = test system: NCI-H23
TK-10 = test system: TK-10
UO-31 = test system: UO-31
SF-539 = test system: SF-539
SK-MEL-28 = test system: SK-MEL-28
HOP-62 = test system: HOP-62
NCI-H226 = test system: NCI-H226
SF-295 = test system: SF-295
ACHN = test system: ACHN
U-251 = test system: U-251
M14 = test system: M14
COLO 205 = test system: COLO 205
NCI-H522 = test system: NCI-H522
SNB-19 = test system: SNB-19
LOX IMVI = test system: LOX IMVI

Measured: GI50

O=C1CC(c2c[nH]c3ccccc23)C(=O)N1c1ccccc1 (stereo not given)
inactive: SK-MEL-5 > 100 µM | NCI-H23 > 100 µM | TK-10 > 100 µM | UO-31 83.6 µM | SF-539 > 100 µM | SK-MEL-28 > 100 µM | HOP-62 > 100 µM | NCI-H226 > 100 µM | SF-295 > 100 µM | ACHN > 100 µM | U-251 > 100 µM | M14 > 100 µM

O=C1NC2(O)c3ccccc3C(=O)C2(O)N1c1ccccc1 (stereo not given)
inactive: NCI-H23 > 100 µM | TK-10 > 100 µM | COLO 205 > 100 µM | UO-31 > 100 µM | NCI-H522 > 100 µM | SF-539 > 100 µM | SNB-19 > 100 µM | SK-MEL-28 > 100 µM | LOX IMVI > 100 µM | SF-295 > 100 µM | U-251 > 100 µM | M14 > 100 µM

O=C(Nc1cccc2c1C(=O)c1c(NC(=O)c3ccccc3)ccc(Nc3cccc4c3C(=O)c3ccccc3C4=O)c1C2=O)c1ccccc1
inactive: SK-MEL-5 > 100 µM | TK-10 > 100 µM | COLO 205 > 100 µM | UO-31 > 100 µM | NCI-H522 > 100 µM | SF-539 > 100 µM | SNB-19 > 100 µM | SK-MEL-28 > 100 µM | HOP-62 > 100 µM | NCI-H226 > 100 µM | ACHN > 100 µM | U-251 > 100 µM | M14 > 100 µM

CCOC(=O)CCCO
inactive: SK-MEL-5 > 100 µM | NCI-H23 > 100 µM | TK-10 > 100 µM | UO-31 > 100 µM | NCI-H522 > 100 µM | SF-539 > 100 µM | SNB-19 > 100 µM | SK-MEL-28 > 100 µM | LOX IMVI > 100 µM | SF-295 > 100 µM | ACHN > 100 µM | U-251 > 100 µM | M14 > 100 µM

CCSC(=O)C1(C)OC2CCCCC2C1=O (stereo not given)
inactive: SK-MEL-5 > 100 µM | TK-10 > 100 µM | COLO 205 > 100 µM | UO-31 > 100 µM | NCI-H522 > 100 µM | SF-539 > 100 µM | SNB-19 > 100 µM | SK-MEL-28 > 100 µM | HOP-62 > 100 µM | NCI-H226 > 100 µM | ACHN > 100 µM | U-251 > 100 µM | M14 > 100 µM

C=CCN1C2Cc3cc(OC)c(OC)cc3C1Cc1cc(OC)c(OC)cc12
inactive: SK-MEL-5 > 100 µM | NCI-H23 78.9 µM | TK-10 > 100 µM | UO-31 64 µM | NCI-H522 > 100 µM | SNB-19 > 100 µM | SK-MEL-28 > 100 µM | HOP-62 > 100 µM | SF-295 53.8 µM | ACHN > 100 µM | U-251 > 100 µM | M14 > 100 µM
